Data: publication PMC11596610 (Molecules, 2024)
Like-named read-outs stand apart in the source and are kept apart here.

Key:
[1] = Cytotoxicity assay with the rat L6 cell line (resazurin); format: cell-based
Procedure: Cultures were maintained at 37 °C in an atmosphere of 5% CO2. […] Plates were incubated at 37 °C under a 5% CO2 atmosphere for 24 h. After that, compounds were dissolved in DMSO (10 mM or 10 mg/mL), serial drug dilutions of eleven 3-fold dilution steps covering a range from 100 to 0.002 μg/mL or 100 to 0.002 µM were prepared, and the plates incubated at 37 °C under 5% CO2 for 70 h. […] The results were expressed as percentage of the untreated controls. Fifty percent inhibitory concentrations (IC50) were estimated by linear interpolation.

[2] = test system: P. falciparum strain NF54; assay: [3H]-hypoxanthine incorporation assay, antiplasmodial activity; format: cell-based; details: Plasmodium falciparum
Procedure: Compounds were dissolved in DMSO at 10 mM, serial dilutions prepared in hypoxanthine-free culture medium (7-step dilution series; 2-fold serial dilutions) and 100 μL aliquots were dispensed in duplicates into 96-well cell culture plates. […] After incubation for 48 h, 0.25 μCi of [^3H]-hypoxanthine was added per well and plates were incubated for an additional 24 h. Parasites were harvested onto glass-fiber filters using a Microbeta FilterMate cell harvester (Perkin Elmer, Waltham, MA, USA) and radioactivity was counted using a MicroBeta2 liquid scintillation counter (Perkin Elmer, Waltham, MA, USA).

[3] = test system: S. mansoni newly transformed schistosomula (NTS); assay: Drug assay against S. mansoni NTS; format: cell-based, Schistosoma mansoni; details: for IC50: Schistosoma mansoni
Text: Harvested S. mansoni cercariae (Liberian strain) obtained from infected Biomphalaria glabrata snails were mechanically transformed into newly transformed schistosomula (NTS) following standard procedures as described. Artesunate and praziquantel were previously tested in the drug assay against S. mansoni NTS [39]. […] Culture medium was composed of M199 medium (Gibco, Waltham MA, USA) supplemented with 5% Horse Serum (Gibco, Waltham MA, USA), 1% penicillin/streptomycin mixture (Invitrogen, Carlsbad, CA, USA, 100 U/mL) and 1% Mäser Mix. Each compound was tested in triplicate. NTS incubated with no more than 1% DMSO served as control. NTS were kept in the incubator at 37 °C and 5% CO2 for up to 72 h. After 24, 48 and 72 h, the condition of the NTS was microscopically evaluated.

S. mansoni = assay: Drug assay in vivo in S. mansoni-infected mice; design: species or system mice (NMRI); details: single oral dose 200 mg/kg
Procedure: The in vivo study was carried out in accordance with Swiss national and cantonal regulations on animal welfare under the permission number 545. Female mice (NMRI strain; 3-week-old; weight ca. 20–22 g) were purchased from Charles River, Germany. Rodents were kept under environmentally controlled conditions (temperature ~25 °C; humidity ~70%; 12 h light, 12 h dark cycle) with free access to water and rodent diet, and acclimatized for one week before infection. […]. Untreated mice (n = 4) served as controls in all experiments. Two weeks post-treatment mice were dissected and all worms counted. Worm burden reductions were calculated.

S. mansoni adult worms = assay: Drug assay against ex vivo S. mansoni adult worms; format: cell-based, Schistosoma mansoni; details: for IC50: Schistosoma mansoni
Procedure: Female NMRI mice (age 3 weeks, weight ca. 14–20 g) were purchased from Charles River (Sulzfeld, Germany). […] To obtain adult schistosomes, NMRI mice were infected subcutaneously with 80 to 100 cercariae. After 49 days, the mice were euthanized with CO2 and the worms collected from the hepatic portal and mesenteric veins. […] Each compound was tested in duplicate. Artesunate and praziquantel were previously tested in the drug assay against S. mansoni adult worms. Schistosomes incubation with no more than 1% DMSO served as control. Worms were kept in an incubator at 37 °C and 5% CO2 for up to 72 h. After 24, 48 and 72 h, the condition of the worms was microscopically evaluated and scored as described above.

[4] = P. falciparum NF54, 3H-hypoxanthine incorporation, mean of 2 independent determinations, read-out: NF54 IC50

SMILES | CC50 at 70 h ([1]; rat) [nM] | IC50 [2, 4] [nM] | IC50 ([3]; 24 h) [nM] | IC50 ([3]; 48 h) [nM] | IC50 ([3]; 72 h) [nM] | Effect in % ± SD ([3]; test conc. 1 µM, 24 h) [%] | Effect in % ± SD ([3]; test conc. 1 µM, 48 h) [%] | Effect in % ± SD ([3]; test conc. 1 µM, 72 h) [%] | Effect in % ± SD ([3]; test conc. 10 µM, 24 h) [%] | Effect in % ± SD ([3]; test conc. 10 µM, 48 h) [%] | Effect in % ± SD ([3]; test conc. 10 µM, 72 h) [%] | IC50 (S. mansoni adult worms; 24 h) [nM] | IC50 (S. mansoni adult worms; 48 h) [nM] | IC50 (S. mansoni adult worms; 72 h) [nM] | Effect in % ± SD (S. mansoni adult worms; test conc. 10 µM, 24 h) [%] | Effect in % ± SD (S. mansoni adult worms; test conc. 10 µM, 48 h) [%] | Effect in % ± SD (S. mansoni adult worms; test conc. 10 µM, 72 h) [%] | Effect in % ± SD (S. mansoni adult worms; test conc. 25 µM, 24 h) [%] | Effect in % ± SD (S. mansoni adult worms; test conc. 25 µM, 48 h) [%] | Effect in % ± SD (S. mansoni adult worms; test conc. 25 µM, 72 h) [%] | other results
CC1=C(Cc2ccc(C(F)(F)F)cc2)C(=O)C2(C)CC=CC=C2C1=O (racemic) [Product 1, (±)-2,4a-dimethyl-3-(4-(trifluoromethyl)benzyl)-4a,5-dihydronaphthalene-1,4-dione] | 22500 | 1850 ± 458 | 2700 | 2400 | 2000 | 18.87 ± 1.9 | 26.42 ± 1.9 | 28.57 ± 2 | 34.59 ± 1.3 | 35.35 ± 0.7 | 71.70 ± 9.4 | 800 | 200 | 600 | 53.7 ± 0.9 | 65.65 ± 3.1 | 66.7 ± 2.1 | 70.4 ± 3.7 | 73.15 ± 2.8 | 88.9 ± 0 | Effect in % ± SD ([3]; test conc. 25 µM, 24 h): 100 ± 0%; Effect in % ± SD ([3]; test conc. 25 µM, 48 h): 100 ± 0%; Effect in % ± SD ([3]; test conc. 25 µM, 72 h): 100 ± 0%; Total WBR (worm burden reduction) (S. mansoni): 15.7%; Cures (S. mansoni; cured/treated): 0/4; Mean Number of Worms (SD) Females (S. mansoni; two weeks post-treatment): 10.8 (1.0); Mean Number of Worms (SD) Liver (S. mansoni; two weeks post-treatment): 0; Mean Number of Worms (SD) Mesenteric Veins (S. mansoni; two weeks post-treatment): 21.5 (1.9); Mean Number of Worms (SD) Total (S. mansoni; two weeks post-treatment): 21.5 (1.9); Effect in % ± SD (S. mansoni adult worms; test conc. 1 µM, 24 h): 53.3 ± 0%; Effect in % ± SD (S. mansoni adult worms; test conc. 1 µM, 48 h): 58.3 ± 0%; Effect in % ± SD (S. mansoni adult worms; test conc. 1 µM, 72 h): 59.15 ± 0.8%
CC1=C(Cc2ccc(C(F)(F)F)cc2)C(=O)C2=CC=CCC2(C)C1=O (racemic) [Product 2, (±)-3,4a-dimethyl-2-(4-(trifluoromethyl)benzyl)-4a,5-dihydronaphthalene-1,4-dione] | 25600 | 2390 ± 825 | 17400 | 8500 | 1700 | 20.75 ± 0 | 32.08 ± 0 | 36.73 ± 2 | 34.52 ± 6.2 | 51.43 ± 8.6 | 86.79 ± 1.9 | 22700 | 17300 | 15200 | 42.75 ± 1 | 48.05 ± 2.9 | 50 ± 0 | 44.4 ± 0 | 49.05 ± 0.9 | 51.9 ± 0 | –
CCN(CC)CCCC(C)Nc1ccnc2cc(Cl)ccc12 (stereo not shown) [CQ diphosphate, Chloroquine diphosphate, reference compound] | – | – | – | – | – | – | – | – | – | – | – | – | – | – | – | – | – | – | – | – | IC50 ([2]; NF54, read-out: NF54 IC50): 4 ng/mL
COc1cc([C@@H]2c3cc4c(cc3[C@H](O)[C@H]3COC(=O)[C@H]23)OCO4)cc(OC)c1OC [Podophyllotoxin, podophyllotoxin, reference compound] | – | – | – | – | – | – | – | – | – | – | – | – | – | – | – | – | – | – | – | – | CC50 at 70 h ([1]; rat L6 cells, 70 h incubation, resazurin, read-out: L6 CC50): 10 nM
C[C@H]1[C@H](OC(=O)CCC(=O)O)O[C@@H]2O[C@@]3(C)CC[C@H]4[C@H](C)CC[C@@H]1[C@@]24OO3 [artesunate, reference compound] | – | – | – | – | – | – | – | – | – | – | – | – | – | – | – | – | – | – | – | – | IC50 ([2]; P. falciparum NF54, reference compounds, values printed in ng/mL, read-out: NF54 IC50): 1.52 ng/mL
